According to ChEMBL document CHEMBL3351784, “Synthesis and evaluation of anti-inflammatory activity of derivatives of the marine natural products fuscol and eunicol” (Bioorg Med Chem Lett, 2014):

Test system: Mus musculus
Assay: Toxicity in mouse at 0.1 mg/ear administered topically
Assay type: organism-based
Conditions: in vivo, topical_or_ocular

Compound | Activity
C/C(=C\C=C\C(C)(C)O)C(C)C | Non-toxic
C/C(=C\C=C\C(C)(C)O)C1CCCCC1 | Non-toxic
C/C(=C\C=C\C(C)(C)O)c1ccccc1 | Non-toxic
CC1=CCC(/C(C)=C/C=C/C(C)(C)O)CC1 (stereo not given) | Non-toxic
C/C(=C\C=C\C(C)(C)O)C1CC[C@@H](C)C[C@H]1O (stereo not given in full) | Non-toxic
C/C(=C\C=C\C(C)(C)O)C1CCc2ccccc2C1 (stereo not given) | Non-toxic
C=C[C@@]1(C)CC[C@H](/C(C)=C/C=C/C(C)(C)O)C[C@@H]1C(=C)C [FUSCOL] | Non-toxic

Test system: Mus musculus
Assay: Antiinflammatory activity in mouse assessed as reduction in PMA-induced ear edema at 0.1 mg/ear administered topically measured after 24 hrs relative to control
Assay type: functional
Design: scale not given: the % may be the effect or the level left
Conditions: not given

Compound | Activity
C/C(=C\C=C\C(C)(C)O)C(C)C | 80%
C/C(=C\C=C\C(C)(C)O)C1CCCCC1 | 62%
C/C(=C\C=C\C(C)(C)O)c1ccccc1 | 0%
CC1=CCC(/C(C)=C/C=C/C(C)(C)O)CC1 (stereo not given) | 58%
C/C(=C\C=C\C(C)(C)O)C1CC[C@@H](C)C[C@H]1O (stereo not given in full) | 71%
C/C(=C\C=C\C(C)(C)O)C1CCc2ccccc2C1 (stereo not given) | 58%
C=C[C@@]1(C)CC[C@H](/C(C)=C/C=C/C(C)(C)O)C[C@@H]1C(=C)C [FUSCOL] | 46%

Test system: Mus musculus
Assay: Antiinflammatory activity in mouse assessed as reduction in PMA-induced ear edema at 3 mg/ear administered topically relative to control
Assay type: functional
Design: scale not given: the % may be the effect or the level left
Conditions: not given

Compound | Activity
COc1ccc2c(c1)c(CC(=O)O)c(C)n2C(=O)c1ccc(Cl)cc1 [INDOMETHACIN] | 51%
